Source: PMC10227015, “From a drug repositioning to a structure-based drug design approach to tackle acute lymphoblastic leukemia” (Nature Communications, 2023)
“And” between values parts separate entries of the source, which are not always exact repeats. Identical values can stand only once.

Columns and labels:
97 kinases = assay: Kinome profiling (KINOMEscan, whole panel); format: binding, human; conditions: OR0642 1 µM
Experimental: (§1) Kinome profiling was provided by Eurofins DiscoverX Corporation. Determination of the % control activity for 97 kinases was obtained through an active site-directed competition binding assay that quantitatively measure interactions between compound and kinases. OR0642 was used at 1 μM.
Supplementary Table 3. KINOMEscan™ Profiling of OR0642. Competition binding assay to quantitatively measure interactions between OR0642 (1 µM) and 97 human kinases and disease relevant mutant variants.
Target Gene Symbol %Control Target Gene Symbol %Control […]

PCTK1 = molecular target: T1, PCTK1 (Homo sapiens, UniProt Q00536); assay: KINOMEscan competition binding; conditions: OR0642 1 µM; read-out: %Control
T1 construct: purchased Eurofins DiscoverX (KINOMEscan scanEDGE 97)
Experimental: as §1
(§2) Supplementary Table 3. KINOMEscan™ Profiling of OR0642. Competition binding assay to
(§3) quantitatively measure interactions between OR0642 (1 µM) and 97 human kinases and disease
(§4) relevant mutant variants.

ERBB4 = molecular target: T2, ERBB4 (Homo sapiens, UniProt Q15303); assay: KINOMEscan competition binding; conditions: OR0642 1 µM; read-out: %Control
T2 construct: purchased Eurofins DiscoverX (KINOMEscan scanEDGE 97)
T2 sequence (Q15303 26-1308): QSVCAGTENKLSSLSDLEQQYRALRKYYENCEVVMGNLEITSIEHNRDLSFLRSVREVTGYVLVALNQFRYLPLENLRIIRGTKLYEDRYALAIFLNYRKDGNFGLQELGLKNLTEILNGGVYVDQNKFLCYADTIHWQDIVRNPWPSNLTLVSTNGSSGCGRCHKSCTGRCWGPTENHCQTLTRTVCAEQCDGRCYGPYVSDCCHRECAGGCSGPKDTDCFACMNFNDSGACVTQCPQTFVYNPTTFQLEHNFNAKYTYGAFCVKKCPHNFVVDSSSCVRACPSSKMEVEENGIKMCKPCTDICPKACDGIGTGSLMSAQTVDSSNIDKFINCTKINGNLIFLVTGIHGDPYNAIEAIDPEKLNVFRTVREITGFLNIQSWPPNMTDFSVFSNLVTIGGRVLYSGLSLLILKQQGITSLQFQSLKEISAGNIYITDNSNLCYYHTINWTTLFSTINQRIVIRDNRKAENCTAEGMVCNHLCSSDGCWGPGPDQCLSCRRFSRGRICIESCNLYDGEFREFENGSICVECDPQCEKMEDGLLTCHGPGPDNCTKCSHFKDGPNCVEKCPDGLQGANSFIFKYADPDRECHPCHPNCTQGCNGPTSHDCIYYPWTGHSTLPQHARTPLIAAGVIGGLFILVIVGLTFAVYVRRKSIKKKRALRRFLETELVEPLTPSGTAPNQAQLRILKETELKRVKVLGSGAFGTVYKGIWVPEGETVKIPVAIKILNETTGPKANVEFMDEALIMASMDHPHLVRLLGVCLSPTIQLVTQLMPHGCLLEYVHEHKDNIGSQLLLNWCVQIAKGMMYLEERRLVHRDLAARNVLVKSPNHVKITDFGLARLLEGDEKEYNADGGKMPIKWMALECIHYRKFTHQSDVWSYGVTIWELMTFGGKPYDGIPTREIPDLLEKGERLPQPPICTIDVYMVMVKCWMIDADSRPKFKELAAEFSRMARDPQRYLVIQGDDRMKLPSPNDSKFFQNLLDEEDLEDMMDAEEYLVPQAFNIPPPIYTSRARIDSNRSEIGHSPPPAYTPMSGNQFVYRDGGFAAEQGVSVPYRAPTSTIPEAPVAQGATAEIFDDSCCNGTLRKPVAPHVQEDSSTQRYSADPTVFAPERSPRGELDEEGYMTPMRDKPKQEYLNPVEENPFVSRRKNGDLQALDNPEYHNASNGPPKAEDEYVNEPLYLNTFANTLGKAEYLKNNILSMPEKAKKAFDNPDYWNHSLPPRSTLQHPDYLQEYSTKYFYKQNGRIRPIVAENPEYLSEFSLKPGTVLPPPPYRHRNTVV
Experimental: as §1, §2, §3, §4

BRAF = molecular target: T3, BRAF (Homo sapiens, UniProt P15056); assay: KINOMEscan competition binding; conditions: OR0642 1 µM; read-out: %Control
T3 construct: purchased Eurofins DiscoverX (KINOMEscan scanEDGE 97)
T3 sequence (P15056 whole entry): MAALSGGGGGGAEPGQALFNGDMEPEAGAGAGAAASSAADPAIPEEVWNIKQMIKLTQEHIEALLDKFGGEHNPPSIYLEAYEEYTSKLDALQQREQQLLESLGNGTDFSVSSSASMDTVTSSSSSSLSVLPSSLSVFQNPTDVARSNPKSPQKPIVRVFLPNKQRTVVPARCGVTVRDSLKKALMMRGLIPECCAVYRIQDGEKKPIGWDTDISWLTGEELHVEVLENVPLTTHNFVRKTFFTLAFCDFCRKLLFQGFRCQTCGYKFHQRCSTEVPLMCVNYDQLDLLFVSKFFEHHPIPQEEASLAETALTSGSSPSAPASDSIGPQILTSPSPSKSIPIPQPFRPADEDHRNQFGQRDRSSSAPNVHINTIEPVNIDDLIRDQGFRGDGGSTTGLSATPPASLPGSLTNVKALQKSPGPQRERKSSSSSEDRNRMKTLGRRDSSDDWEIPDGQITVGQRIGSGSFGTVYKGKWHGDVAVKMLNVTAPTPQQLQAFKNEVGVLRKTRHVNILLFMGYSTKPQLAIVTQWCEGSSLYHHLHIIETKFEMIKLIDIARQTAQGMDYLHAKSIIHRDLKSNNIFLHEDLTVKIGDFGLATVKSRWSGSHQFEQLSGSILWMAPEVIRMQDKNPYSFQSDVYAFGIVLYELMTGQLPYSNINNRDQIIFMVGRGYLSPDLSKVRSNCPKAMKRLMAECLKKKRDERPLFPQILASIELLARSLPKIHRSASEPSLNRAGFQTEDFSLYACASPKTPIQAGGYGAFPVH
Experimental: as §1, §2, §3, §4

MKNK1 = molecular target: T4, MKNK1 (Homo sapiens, UniProt Q9BUB5); assay: KINOMEscan competition binding; conditions: OR0642 1 µM; read-out: %Control
T4 construct: purchased Eurofins DiscoverX (KINOMEscan scanEDGE 97)
Experimental: as §1, §2, §3, §4

BTK = molecular target: T5, BTK (Homo sapiens, UniProt Q06187); assay: KINOMEscan competition binding; conditions: OR0642 1 µM; read-out: %Control
T5 construct: purchased Eurofins DiscoverX (KINOMEscan scanEDGE 97)
Experimental: as §1, §2, §3, §4

ADCK3 = molecular target: T6, ADCK3 (Homo sapiens, UniProt Q8NI60); assay: KINOMEscan competition binding; conditions: OR0642 1 µM; read-out: %Control
T6 construct: purchased Eurofins DiscoverX (KINOMEscan scanEDGE 97)
Experimental: as §1, §2, §3, §4

KIT(V559D,T670I) = molecular target: T7, KIT(V559D,T670I) (Homo sapiens, UniProt P10721, T670I/V559D); assay: KINOMEscan competition binding; conditions: OR0642 1 µM; read-out: %Control
T7 construct: purchased Eurofins DiscoverX (KINOMEscan scanEDGE 97)
Experimental: as §1, §2, §3, §4

PDGFRA = molecular target: T8, PDGFRA (Homo sapiens, UniProt P16234); assay: KINOMEscan competition binding; conditions: OR0642 1 µM; read-out: %Control
T8 construct: purchased Eurofins DiscoverX (KINOMEscan scanEDGE 97)
Experimental: as §1, §2, §3, §4

IKK-beta = molecular target: T9, IKK-beta (Homo sapiens, UniProt O14920); assay: KINOMEscan competition binding; conditions: OR0642 1 µM; read-out: %Control
T9 construct: purchased Eurofins DiscoverX (KINOMEscan scanEDGE 97)
Experimental: as §1, §2, §3, §4

KIT(D816V) = molecular target: T10, KIT(D816V) (Homo sapiens, UniProt P10721, D816V); assay: KINOMEscan competition binding; conditions: OR0642 1 µM; read-out: %Control
T10 construct: purchased Eurofins DiscoverX (KINOMEscan scanEDGE 97)
Experimental: as §1, §2, §3, §4

MEK1 = molecular target: T11, MEK1 (Homo sapiens, UniProt Q02750); assay: KINOMEscan competition binding; conditions: OR0642 1 µM; read-out: %Control
T11 construct: purchased Eurofins DiscoverX (KINOMEscan scanEDGE 97)
Experimental: as §1, §2, §3, §4

[1] = molecular target: T12, ABL1(T315I)-phosphorylated (Homo sapiens, UniProt P00519, T315I); assay: KINOMEscan competition binding; conditions: OR0642 1 µM; read-out: %Control
T12 construct: purchased Eurofins DiscoverX (KINOMEscan scanEDGE 97)
Experimental: as §1, §2, §3, §4

CHEK1 = molecular target: T13, CHEK1 (Homo sapiens, UniProt O14757); assay: KINOMEscan competition binding; conditions: OR0642 1 µM; read-out: %Control
T13 construct: purchased Eurofins DiscoverX (KINOMEscan scanEDGE 97)
Experimental: as §1, §2, §3, §4

CDK9 = molecular target: T14, CDK9 (Homo sapiens, UniProt P50750); assay: KINOMEscan competition binding; conditions: OR0642 1 µM; read-out: %Control
T14 construct: purchased Eurofins DiscoverX (KINOMEscan scanEDGE 97)
Experimental: as §1, §2, §3, §4

EGFR(L858R) = molecular target: T15, EGFR(L858R) (Homo sapiens, UniProt P00533, L858R); assay: KINOMEscan competition binding; conditions: OR0642 1 µM; read-out: %Control
T15 construct: purchased Eurofins DiscoverX (KINOMEscan scanEDGE 97)
Experimental: as §1, §2, §3, §4

GSK3B = molecular target: T16, GSK3B (Homo sapiens, UniProt P49841); assay: KINOMEscan competition binding; conditions: OR0642 1 µM; read-out: %Control
T16 construct: purchased Eurofins DiscoverX (KINOMEscan scanEDGE 97)
Experimental: as §1, §2, §3, §4

AKT1 = molecular target: T17, AKT1 (Homo sapiens, UniProt P31749); assay: KINOMEscan competition binding; conditions: OR0642 1 µM; read-out: %Control
T17 construct: purchased Eurofins DiscoverX (KINOMEscan scanEDGE 97)
Experimental: as §1, §2, §3, §4

AKT2 = molecular target: T18, AKT2 (Homo sapiens, UniProt P31751); assay: KINOMEscan competition binding; conditions: OR0642 1 µM; read-out: %Control
T18 construct: purchased Eurofins DiscoverX (KINOMEscan scanEDGE 97)
T18 sequence (P31751 whole entry): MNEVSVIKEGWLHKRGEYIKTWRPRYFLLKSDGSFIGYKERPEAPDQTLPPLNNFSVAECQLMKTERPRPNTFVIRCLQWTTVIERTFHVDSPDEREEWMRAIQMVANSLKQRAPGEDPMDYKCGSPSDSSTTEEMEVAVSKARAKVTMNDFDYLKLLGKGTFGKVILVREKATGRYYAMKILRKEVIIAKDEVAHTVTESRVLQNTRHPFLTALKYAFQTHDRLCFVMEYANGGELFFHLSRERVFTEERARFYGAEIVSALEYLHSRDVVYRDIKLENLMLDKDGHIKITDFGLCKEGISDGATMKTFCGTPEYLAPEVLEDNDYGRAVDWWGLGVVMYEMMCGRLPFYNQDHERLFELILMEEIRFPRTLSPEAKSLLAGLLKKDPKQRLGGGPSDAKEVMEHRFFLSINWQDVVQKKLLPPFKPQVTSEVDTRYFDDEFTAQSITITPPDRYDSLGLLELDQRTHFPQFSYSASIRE
Experimental: as §1, §2, §3, §4

MARK3 = molecular target: T19, MARK3 (Homo sapiens, UniProt P27448); assay: KINOMEscan competition binding; conditions: OR0642 1 µM; read-out: %Control
T19 construct: purchased Eurofins DiscoverX (KINOMEscan scanEDGE 97)
T19 sequence (P27448 whole entry): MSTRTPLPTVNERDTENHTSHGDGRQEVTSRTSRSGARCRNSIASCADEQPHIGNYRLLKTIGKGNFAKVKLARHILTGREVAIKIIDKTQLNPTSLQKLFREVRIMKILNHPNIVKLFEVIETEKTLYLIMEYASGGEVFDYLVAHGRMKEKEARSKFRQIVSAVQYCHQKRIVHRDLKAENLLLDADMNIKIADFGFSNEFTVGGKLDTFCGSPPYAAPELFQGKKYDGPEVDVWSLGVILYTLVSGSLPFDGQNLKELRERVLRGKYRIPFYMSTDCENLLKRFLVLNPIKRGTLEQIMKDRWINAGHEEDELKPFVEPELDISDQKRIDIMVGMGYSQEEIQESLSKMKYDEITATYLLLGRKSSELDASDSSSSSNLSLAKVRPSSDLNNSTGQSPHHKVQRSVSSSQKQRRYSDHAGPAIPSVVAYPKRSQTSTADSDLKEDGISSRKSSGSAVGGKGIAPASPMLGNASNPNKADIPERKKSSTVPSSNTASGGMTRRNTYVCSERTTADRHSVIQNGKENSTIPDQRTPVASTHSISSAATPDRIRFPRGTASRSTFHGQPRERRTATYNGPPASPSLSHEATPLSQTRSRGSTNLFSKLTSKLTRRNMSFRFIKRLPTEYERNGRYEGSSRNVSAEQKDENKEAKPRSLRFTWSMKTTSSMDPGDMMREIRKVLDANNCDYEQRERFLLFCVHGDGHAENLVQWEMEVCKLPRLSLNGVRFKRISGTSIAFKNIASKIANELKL
Experimental: as §1, §2, §3, §4

MAP3K4 = molecular target: T20, MAP3K4 (Homo sapiens, UniProt Q9Y6R4); assay: KINOMEscan competition binding; conditions: OR0642 1 µM; read-out: %Control
T20 construct: purchased Eurofins DiscoverX (KINOMEscan scanEDGE 97)
Experimental: as §1, §2, §3, §4

FLT3 = molecular target: T21, FLT3 (Homo sapiens, UniProt P36888); assay: KINOMEscan competition binding; conditions: OR0642 1 µM; read-out: %Control
T21 construct: purchased Eurofins DiscoverX (KINOMEscan scanEDGE 97)
Experimental: as §1, §2, §3, §4

FGFR3 = molecular target: T22, FGFR3 (Homo sapiens, UniProt P22607); assay: KINOMEscan competition binding; conditions: OR0642 1 µM; read-out: %Control
T22 construct: purchased Eurofins DiscoverX (KINOMEscan scanEDGE 97)
Experimental: as §1, §2, §3, §4

PIK3C2B = molecular target: T23, PIK3C2B (Homo sapiens, UniProt O00750); assay: KINOMEscan competition binding; conditions: OR0642 1 µM; read-out: %Control
T23 construct: purchased Eurofins DiscoverX (KINOMEscan scanEDGE 97)
Experimental: as §1, §2, §3, §4

PDPK1 = molecular target: T24, PDPK1 (Homo sapiens, UniProt O15530); assay: KINOMEscan competition binding; conditions: OR0642 1 µM; read-out: %Control
T24 construct: purchased Eurofins DiscoverX (KINOMEscan scanEDGE 97)
T24 sequence (O15530 whole entry): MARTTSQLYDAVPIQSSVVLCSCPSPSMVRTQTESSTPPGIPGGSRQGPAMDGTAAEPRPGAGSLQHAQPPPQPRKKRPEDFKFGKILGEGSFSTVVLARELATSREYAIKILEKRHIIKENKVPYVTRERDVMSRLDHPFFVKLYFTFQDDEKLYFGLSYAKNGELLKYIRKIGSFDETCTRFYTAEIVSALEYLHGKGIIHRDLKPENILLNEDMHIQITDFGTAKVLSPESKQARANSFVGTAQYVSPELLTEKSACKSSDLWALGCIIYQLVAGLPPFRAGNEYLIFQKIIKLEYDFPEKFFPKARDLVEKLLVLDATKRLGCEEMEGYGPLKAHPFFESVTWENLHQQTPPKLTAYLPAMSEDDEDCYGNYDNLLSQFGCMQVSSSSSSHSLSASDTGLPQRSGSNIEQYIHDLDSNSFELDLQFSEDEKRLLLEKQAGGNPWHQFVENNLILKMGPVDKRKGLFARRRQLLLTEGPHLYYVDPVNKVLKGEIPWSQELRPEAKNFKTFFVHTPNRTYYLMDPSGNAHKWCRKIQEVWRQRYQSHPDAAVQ
Experimental: as §1, §2, §3, §4

ALK = molecular target: T25, ALK (Homo sapiens, UniProt Q9UM73); assay: KINOMEscan competition binding; conditions: OR0642 1 µM; read-out: %Control
T25 construct: purchased Eurofins DiscoverX (KINOMEscan scanEDGE 97)
Experimental: as §1, §2, §3, §4

JNK2 = molecular target: T26, JNK2 (Homo sapiens, UniProt P45984); assay: KINOMEscan competition binding; conditions: OR0642 1 µM; read-out: %Control
T26 construct: purchased Eurofins DiscoverX (KINOMEscan scanEDGE 97)
Experimental: as §1, §2, §3, §4

EGFR = molecular target: T27, EGFR (Homo sapiens, UniProt P00533); assay: KINOMEscan competition binding; conditions: OR0642 1 µM; read-out: %Control
T27 construct: purchased Eurofins DiscoverX (KINOMEscan scanEDGE 97)
Experimental: as §1, §2, §3, §4

PIK3CA = molecular target: T28, PIK3CA (Homo sapiens, UniProt P42336); assay: KINOMEscan competition binding; conditions: OR0642 1 µM; read-out: %Control
T28 construct: purchased Eurofins DiscoverX (KINOMEscan scanEDGE 97)
Experimental: as §1, §2, §3, §4

AURKA = molecular target: T29, AURKA (Homo sapiens, UniProt O14965); assay: KINOMEscan competition binding; conditions: OR0642 1 µM; read-out: %Control
T29 construct: purchased Eurofins DiscoverX (KINOMEscan scanEDGE 97)
Experimental: as §1, §2, §3, §4

ACVR1B = molecular target: T30, ACVR1B (Homo sapiens, UniProt P36896); assay: KINOMEscan competition binding; conditions: OR0642 1 µM; read-out: %Control
T30 construct: purchased Eurofins DiscoverX (KINOMEscan scanEDGE 97)
Experimental: as §1, §2, §3, §4

KIT = molecular target: T31, KIT (Homo sapiens, UniProt P10721); assay: KINOMEscan competition binding; conditions: OR0642 1 µM; read-out: %Control
T31 construct: purchased Eurofins DiscoverX (KINOMEscan scanEDGE 97)
Experimental: as §1, §2, §3, §4

MLK1 = molecular target: T32, MLK1 (Homo sapiens, UniProt P80192); assay: KINOMEscan competition binding; conditions: OR0642 1 µM; read-out: %Control
T32 construct: purchased Eurofins DiscoverX (KINOMEscan scanEDGE 97)
T32 sequence (P80192 whole entry): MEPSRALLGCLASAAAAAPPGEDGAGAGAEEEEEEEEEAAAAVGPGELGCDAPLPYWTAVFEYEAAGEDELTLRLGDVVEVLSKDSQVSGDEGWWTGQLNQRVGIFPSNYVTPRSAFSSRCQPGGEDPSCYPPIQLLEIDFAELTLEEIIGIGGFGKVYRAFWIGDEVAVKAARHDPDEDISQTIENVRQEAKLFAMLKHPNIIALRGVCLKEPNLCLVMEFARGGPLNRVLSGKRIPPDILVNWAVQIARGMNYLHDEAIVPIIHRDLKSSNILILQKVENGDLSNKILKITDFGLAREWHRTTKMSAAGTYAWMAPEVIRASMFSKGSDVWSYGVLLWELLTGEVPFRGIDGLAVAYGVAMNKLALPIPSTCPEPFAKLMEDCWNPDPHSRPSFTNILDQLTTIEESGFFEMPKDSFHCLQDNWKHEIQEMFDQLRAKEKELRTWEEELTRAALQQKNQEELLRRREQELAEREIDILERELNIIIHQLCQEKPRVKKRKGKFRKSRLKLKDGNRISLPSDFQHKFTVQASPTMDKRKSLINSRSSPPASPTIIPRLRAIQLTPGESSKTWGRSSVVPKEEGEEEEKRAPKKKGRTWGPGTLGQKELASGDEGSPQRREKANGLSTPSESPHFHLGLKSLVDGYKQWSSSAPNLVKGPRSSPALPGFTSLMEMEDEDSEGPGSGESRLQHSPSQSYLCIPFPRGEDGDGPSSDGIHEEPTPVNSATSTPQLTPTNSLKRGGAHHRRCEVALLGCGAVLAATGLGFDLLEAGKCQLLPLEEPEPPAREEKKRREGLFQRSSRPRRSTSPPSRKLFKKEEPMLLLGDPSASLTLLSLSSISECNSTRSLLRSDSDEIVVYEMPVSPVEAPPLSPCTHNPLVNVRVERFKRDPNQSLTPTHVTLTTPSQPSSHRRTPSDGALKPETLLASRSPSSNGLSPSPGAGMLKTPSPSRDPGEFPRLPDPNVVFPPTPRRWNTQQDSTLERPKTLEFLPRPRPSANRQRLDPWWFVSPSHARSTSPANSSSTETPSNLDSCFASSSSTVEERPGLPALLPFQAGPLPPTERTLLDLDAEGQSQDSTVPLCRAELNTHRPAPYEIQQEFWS
Experimental: as §1, §2, §3, §4

[2] = test system: UPNT525 patient-derived xenograft; assay: T-ALL PDX mouse model UPNT525; format: in vivo; parameters: hCD45+ populations determined by flux cytometry at day 19: unit not given here
Experimental: Temperature was maintained between 20 and 24 °C and the hygrometry between 40 and 60%. Sex was not considered in the study design and studies were realized in male mice, as toxicity and pharmacokinetics were performed previously in male mice. […] OR0642 was administered in its hydrochloride salt form (OR0642-HCl). Drug administration protocol is detailed in Fig. 4a. […] Patient-derived xenograft was generated from a primary-T-ALL (UPNT525) sample[28],[29]. Briefly, we injected 1,000,000 cells in 100 μl of PBS by intravenous (IV) retro orbital injection in NSG mice. […] Drug administration protocol is detailed in Fig. 5d. Disease propagation was monitored at day 19 by hCD45 detection in peripheral blood. […] Figures exemplifying the gating strategy are provided in the Supplementary Information (Supplementary Figs. 32 and 33).

[3] = PDX mouse model UPNT525, dT 1,5 g/Kg, individual mice

CCCN(c1nc(-c2nc(N)cc(N)n2)cs1)c1cc(-c2ccc(S(=O)(=O)N3CCN(C)CC3)cc2C(F)(F)F)ccc1C [OR0642]
kinome-wide profiling (97 kinases): none of the 97 kinases tested was inhibited | remaining binding at 1 µM (PCTK1): 98% | remaining binding at 1 µM (ERBB4): 100% | remaining binding at 1 µM (BRAF): 99% | remaining binding at 1 µM (MKNK1): 100% | remaining binding at 1 µM (BTK): 92% | remaining binding at 1 µM (ADCK3): 95% | remaining binding at 1 µM (KIT(V559D,T670I)): 100% | remaining binding at 1 µM (PDGFRA): 97% | remaining binding at 1 µM (IKK-beta): 90% | remaining binding at 1 µM (KIT(D816V)): 94% | remaining binding at 1 µM (MEK1): 97% | remaining binding at 1 µM [1]: 89% | remaining binding at 1 µM (CHEK1): 91% | remaining binding at 1 µM (CDK9): 98% | remaining binding at 1 µM (EGFR(L858R)): 72% | remaining binding at 1 µM (GSK3B): 100% | remaining binding at 1 µM (AKT1): 91% | remaining binding at 1 µM (AKT2): 100% | remaining binding at 1 µM (MARK3): 100% | remaining binding at 1 µM (MAP3K4): 97% | remaining binding at 1 µM (FLT3): 100% | remaining binding at 1 µM (FGFR3): 79% | remaining binding at 1 µM (PIK3C2B): 100% | remaining binding at 1 µM (PDPK1): 98% | remaining binding at 1 µM (ALK): 80% | remaining binding at 1 µM (JNK2): 84% | remaining binding at 1 µM (EGFR): 82% | remaining binding at 1 µM (PIK3CA): 100% | remaining binding at 1 µM (AURKA): 96% | remaining binding at 1 µM (ACVR1B): 86% | remaining binding at 1 µM (KIT): 91% | remaining binding at 1 µM (MLK1): 91%

Cc1cn([C@H]2C[C@H](O)[C@@H](CO)O2)c(=O)[nH]c1=O [dT, thymidine]
Survival days [2, 3]: 26 days and 38 days and 42 days | hCD45+ populations determined by flux cytometry at day 19 [2, 3]: 164 and 330 and 108 and 177 and 168 and 318 | median survival ([2]; dT 1.5 g/kg, OR0642 40 mg/kg IP BID 5 days a week): 38 days | effect on disease progression ([2]; day 19): significant decrease in disease progression
